Assay results published in patent US10654884B2 (Vitae Pharmaceuticals, Inc., priority 2014, dated 2020).
pIC50: −log10 of the molar value.

What was measured:
[1] = target: T1, human CD73 (Homo sapiens, UniProt P21589); test: Inhibition of 5′-Nucleotidase Activity of CD73 (Assay 1); assay type: biochemical; conditions: human CD73 4 ng/ml, 50 μM CMP, 20 min at RT, malachite green readout; read-out: Assay 1: IC50, inhibition of 5′-nucleotidase activity of CD73
T1 construct: purchased R&D Systems 5795-EN-010
T1 sequence (P21589 27-549): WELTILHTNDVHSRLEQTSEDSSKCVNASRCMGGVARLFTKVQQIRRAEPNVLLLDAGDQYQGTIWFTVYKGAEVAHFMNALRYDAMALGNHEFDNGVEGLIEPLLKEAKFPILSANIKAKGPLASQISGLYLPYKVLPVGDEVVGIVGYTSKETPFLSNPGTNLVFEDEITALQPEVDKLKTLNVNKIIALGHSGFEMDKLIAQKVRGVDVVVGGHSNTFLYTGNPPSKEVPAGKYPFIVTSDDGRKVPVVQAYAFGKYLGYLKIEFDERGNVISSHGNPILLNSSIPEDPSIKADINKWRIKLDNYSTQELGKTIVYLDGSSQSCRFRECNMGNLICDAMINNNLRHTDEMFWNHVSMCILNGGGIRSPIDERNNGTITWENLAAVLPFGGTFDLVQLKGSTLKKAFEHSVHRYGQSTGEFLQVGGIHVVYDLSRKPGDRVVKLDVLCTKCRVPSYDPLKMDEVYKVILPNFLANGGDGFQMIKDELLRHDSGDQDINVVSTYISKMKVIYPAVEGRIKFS
Outline: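 Human CD73 (4 ng/ml final) was incubated with 50 μM CMP in 25 mM Tris-HCl pH 7.4, 0.005% Brij-35 for 20 min at RT. Reactions were stopped with malachite green reagent and absorbance was read at 620 nm. IC50 came from a 4-parameter logistic fit.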

[2] = target: T2, CD73 on U138 neuroglioma cells (Homo sapiens, UniProt P21589); test: Inhibition of Ecto-5′-Nucleotidase Activity in U138 Neuroglioma Cells (Assay 2); assay type: cell-based; conditions: 50 μM CMP, 2 hr at 37° C., malachite green readout, read-out: Assay 2: IC50, inhibition of ecto-5′-nucleotidase activity in U138 neuroglioma cells
T2 construct: U138 neuroglioma cells, which express CD73 on their surface; endogenous in cells; host or cells: U138 neuroglioma cells (ATCC)
T2 sequence (P21589 27-549): T1 sequence (P21589 27-549)
Outline: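 Whole-cell CD73 activity in U138 human neuroglioma cells seeded the day before, washed free of phosphate, then given test compound dilutions with 50 μM CMP in HEPES-buffered saline, pH 7.4, DMSO ≤0.1%. Incubated 2 hr at 37° C; released inorganic phosphate in supernatant measured by malachite green; IC50 by nonlinear regression.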

O=C(O)C(OC[C@H]1O[C@@H](n2cnc3c(N[C@H]4CCOC4)nc(Cl)nc32)[C@H](O)[C@@H]1O)C(=O)O [Example 83, 2-(((2R,3S,4R,5R)-5-(2-chloro-6-(((S)-tetrahydrofuran-3-yl)amino)-9H-purin-9-yl)-3,4-dihydroxytetrahydrofuran-2-yl)methoxy)malonic acid]
pIC50 [1]: 6.00 to 7.00
pIC50 [2]: < 6.00

Nc1nc(Cl)nc2c1ncn2[C@@H]1O[C@H](COC(Cc2c(F)cccc2F)(C(=O)O)C(=O)O)[C@@H](O)[C@H]1O [Example 84, 2-(((2R,3S,4R,5R)-5-(6-amino-2-chloro-9H-purin-9-yl)-3,4-dihydroxytetrahydrofuran-2-yl)methoxy)-2-(2,6-difluorobenzyl)malonic acid]
pIC50 [1]: > 7.00
pIC50 [2]: > 7.00

N#Cc1ccccc1CC(OC[C@H]1O[C@@H](n2cnc3c(N)nc(Cl)nc32)[C@H](O)[C@@H]1O)(C(=O)O)C(=O)O [Example 85]
pIC50 [1]: > 7.00
pIC50 [2]: > 7.00

CS(=O)(=O)c1ccccc1CC(OC[C@H]1O[C@@H](n2cnc3c(N)nc(Cl)nc32)[C@H](O)[C@@H]1O)(C(=O)O)C(=O)O [Example 86, 2-(((2R,3S,4R,5R)-5-(6-amino-2-chloro-9H-purin-9-yl)-3,4-dihydroxytetrahydrofuran-2-yl)methoxy)-2-(2-(methylsulfonyl)benzyl)malonic acid]
pIC50 [1]: > 7.00
pIC50 [2]: 6.00 to 7.00

CCOC(=O)C(OC[C@H]1C[C@@H](n2nnc3c(NC[C@@H]4CCOC4)nc(Cl)nc32)[C@H](O)[C@@H]1O)P(=O)(O)O (stereo partly drawn) [Example 88, (1-(((1R,2R,3S,4R)-4-(5-chloro-7-((((S)-tetrahydrofuran-3-yl)methyl)amino)-3H-[1,2,3]triazolo[4,5-d]pyrimidin-3-yl)-2,3-dihydroxycyclopentyl)methoxy)-2-ethoxy-2-oxoethyl)phosphonic Acid]
pIC50 [1]: > 7.00
pIC50 [2]: > 7.00

CCOC(=O)C(OC[C@H]1C[C@@H](n2nnc3c(NC[C@H]4CCOC4)nc(Cl)nc32)[C@H](O)[C@@H]1O)P(=O)(O)O (stereo partly drawn) [Example 89, (1-(((1R,2R,3S,4R)-4-(5-chloro-7-((((R)-tetrahydrofuran-3-yl)methyl)amino)-3H-[1,2,3]triazolo[4,5-d]pyrimidin-3-yl)-2,3-dihydroxycyclopentyl)methoxy)-2-ethoxy-2-oxoethyl)phosphonic Acid]
pIC50 [1]: > 7.00
pIC50 [2]: > 7.00

CCOC(=O)C(OC[C@H]1C[C@@H](n2nnc3c(N[C@@H]4CCOC4)nc(Cl)nc32)[C@H](O)[C@@H]1O)P(=O)(O)O (stereo partly drawn) [Example 90, (1-(((1R,2R,3S,4R)-4-(5-chloro-7-(((R)-tetrahydrofuran-3-yl)amino)-3H-[1,2,3]triazolo[4,5-d]pyrimidin-3-yl)-2,3-dihydroxycyclopentyl)methoxy)-2-ethoxy-2-oxoethyl)phosphonic Acid]
pIC50 [1]: > 7.00
pIC50 [2]: > 7.00

CCOC(=O)C(OC[C@H]1C[C@@H](n2nnc3c(N[C@H]4CCOC4)nc(Cl)nc32)[C@H](O)[C@@H]1O)P(=O)(O)O (stereo partly drawn) [Example 91, (1-(((1R,2R,3S,4R)-4-(5-chloro-7-(((S)-tetrahydrofuran-3-yl)amino)-3H-[1,2,3]triazolo[4,5-d]pyrimidin-3-yl)-2,3-dihydroxycyclopentyl)methoxy)-2-ethoxy-2-oxoethyl)phosphonic Acid]
pIC50 [1]: > 7.00
pIC50 [2]: > 7.00

CCOC(=O)C(OC[C@H]1C[C@@H](n2nnc3c(NC4CCCC4)nc(Cl)nc32)[C@H](O)[C@@H]1O)P(=O)(O)O (stereo partly drawn) [Example 92, (1-(((1R,2R,3S,4R)-4-(5-chloro-7-(cyclopentylamino)-3H-[1,2,3]triazolo[4,5-d]pyrimidin-3-yl)-2,3-dihydroxycyclopentyl)methoxy)-2-ethoxy-2-oxoethyl)phosphonic Acid]
pIC50 [1]: > 7.00
pIC50 [2]: > 7.00

Nc1nc(Cl)nc2c1ncn2[C@@H]1O[C@H](COC(Cc2ccccn2)(C(=O)O)C(=O)O)[C@@H](O)[C@H]1O [Example 93, 2-(((2R,3S,4R,5R)-5-(6-amino-2-chloro-9H-purin-9-yl)-3,4-dihydroxytetrahydrofuran-2-yl)methoxy)-2-(pyridin-2-ylmethyl)malonic acid]
pIC50 [1]: > 7.00
pIC50 [2]: > 7.00

Nc1nc(Cl)nc2c1ncn2[C@@H]1O[C@H](COC(Cc2nccs2)(C(=O)O)C(=O)O)[C@@H](O)[C@H]1O [Example 94, 2-(((2R,3S,4R,5R)-5-(6-amino-2-chloro-9H-purin-9-yl)-3,4-dihydroxytetrahydrofuran-2-yl)methoxy)-2-(thiazol-2-ylmethyl)malonic acid]
pIC50 [1]: > 7.00
pIC50 [2]: > 7.00

Nc1nc(Cl)nc2c1ncn2[C@@H]1O[C@H](COC(Cc2cc(F)cc(F)c2)(C(=O)O)C(=O)O)[C@@H](O)[C@H]1O [Example 96, 2-(((2R,3S,4R,5R)-5-(6-amino-2-chloro-9H-purin-9-yl)-3,4-dihydroxytetrahydrofuran-2-yl)methoxy)-2-(3,5-difluorobenzyl)malonic acid]
pIC50 [1]: > 7.00
pIC50 [2]: > 7.00

O=C(O)C(Cc1ccc(F)cc1)(OC[C@H]1O[C@@H](n2cnc3c(NC4CCCC4)nc(Cl)nc32)[C@H](O)[C@@H]1O)C(=O)O [Example 97, 2-(((2R,3S,4R,5R)-5-(2-chloro-6-(cyclopentylamino)-9H-purin-9-yl)-3,4-dihydroxytetrahydrofuran-2-yl)methoxy)-2-(4-fluorobenzyl)malonic acid]
pIC50 [1]: 6.00 to 7.00
pIC50 [2]: 6.00 to 7.00

Nc1nc(Cl)nc2c1ncn2[C@@H]1O[C@H](COC(CC2CC2)(C(=O)O)C(=O)O)[C@@H](O)[C@H]1O [Example 98, 2-(((2R,3S,4R,5R)-5-(6-amino-2-chloro-9H-purin-9-yl)-3,4-dihydroxytetrahydrofuran-2-yl)methoxy)-2-(cyclopropylmethyl)malonic acid]
pIC50 [1]: > 7.00
pIC50 [2]: > 7.00

CCOC(=O)C(SC[C@H]1O[C@@H](n2cnc3c(N)nc(Cl)nc32)[C@H](O)[C@@H]1O)P(=O)(O)O (stereo partly drawn) [Example 99, (1-((((2S,3S,4R,5R)-5-(6-amino-2-chloro-9H-purin-9-yl)-3,4-dihydroxytetrahydrofuran-2-yl)methyl)thio)-2-ethoxy-2-oxoethyl)phosphonic Acid]
pIC50 [1]: 6.00 to 7.00
pIC50 [2]: 6.00 to 7.00
